Assay results as given in PubChem BioAssay (NCI).
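Tested at 5 concentrations; 48 h exposure; 96-well plates; endpoints linearly interpolated, else capped at highest concentration. TGI marks complete inhibition of growth.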

Key:
Experiment in all cases: NCI anticancer screen, dose series, 48 h
[1] = tested on: LXFL 529 NSCLC
[2] = tested on: KM12 colon
[3] = tested on: DMS 114 small cell lung
[4] = tested on: IGROV1 ovarian
[5] = tested on: SN12C renal
[6] = tested on: EKVX NSCLC
[7] = tested on: NCI-H226 lung
[8] = tested on: NCI-H522 lung
[9] = tested on: M19-MEL melanoma
[10] = tested on: K-562 leukemia
[11] = tested on: MOLT-4 leukemia
[12] = tested on: SNB-75 CNS
[13] = tested on: HOP-62 NSCLC
[14] = tested on: KM20L2 colon
[15] = tested on: HOP-18 NSCLC
[16] = tested on: SF-295 CNS
[17] = tested on: SF-268 CNS
[18] = tested on: SK-MEL-28 melanoma
[19] = tested on: A549 NSCLC
[20] = tested on: UACC-62 melanoma
[21] = tested on: NCI-H23 lung
[22] = tested on: DMS 273 small cell lung
[23] = tested on: CCRF-CEM leukemia
[24] = tested on: SNB-78 CNS
[25] = tested on: DLD-1 colon
[26] = tested on: SW-620 colon
[27] = tested on: LOX IMVI melanoma
[28] = tested on: RXF 393 renal
[29] = tested on: COLO 205 colon
[30] = tested on: OVCAR-8 ovarian
[31] = tested on: HT29 colon
[32] = tested on: SK-OV-3 ovarian
[33] = tested on: SNB-19 CNS
[34] = tested on: OVCAR-4 ovarian
[35] = tested on: SK-MEL-5 melanoma
[36] = tested on: NCI-H460 lung
[37] = tested on: TK-10 renal
[38] = tested on: HL-60(TB) leukemia
[39] = tested on: SF-539 CNS
[40] = tested on: M14 melanoma
[41] = tested on: OVCAR-3 ovarian
[42] = tested on: RPMI-8226 leukemia
[43] = tested on: HCT-116 colon
[44] = tested on: U251 CNS
[45] = tested on: 786-0 renal
[46] = tested on: ACHN renal
[47] = tested on: MALME-3M melanoma
[48] = tested on: SK-MEL-2 melanoma
[49] = tested on: HOP-92 NSCLC
[50] = tested on: UACC-257 melanoma
[51] = tested on: UO-31 renal
[52] = tested on: HCT-15 colon
[53] = tested on: OVCAR-5 ovarian
[54] = tested on: SR leukemia
[55] = tested on: CAKI-1 renal

COc1ccccc1NC(=O)CC(=O)NNCC(=O)Nc1nc(-c2ccccc2)cs1
TGI [1]: > 100 µM
TGI [2]: > 100 µM
TGI [3]: > 100 µM
TGI [4]: > 100 µM
TGI [5]: > 100 µM
TGI [6]: > 100 µM
TGI [7]: > 100 µM
TGI [8]: > 100 µM
TGI [9]: > 100 µM
TGI [10]: > 100 µM
TGI [11]: > 100 µM
TGI [12]: > 100 µM
TGI [13]: > 100 µM
TGI [14]: > 100 µM
TGI [15]: > 100 µM
TGI [16]: > 100 µM
TGI [17]: > 100 µM
TGI [18]: > 100 µM
TGI [19]: > 100 µM
TGI [20]: > 100 µM
TGI [21]: > 100 µM
TGI [22]: > 100 µM
TGI [23]: > 100 µM
TGI [24]: > 100 µM
TGI [25]: > 100 µM
TGI [26]: > 100 µM
TGI [27]: > 100 µM
TGI [28]: > 100 µM
TGI [29]: > 100 µM
TGI [30]: > 100 µM
TGI [31]: > 100 µM
TGI [32]: > 100 µM
TGI [33]: > 100 µM
TGI [34]: > 100 µM
TGI [35]: > 100 µM
TGI [36]: > 100 µM
TGI [37]: > 100 µM
TGI [38]: > 100 µM
TGI [39]: > 100 µM
TGI [40]: > 100 µM
TGI [41]: > 100 µM
TGI [42]: > 100 µM
TGI [43]: > 100 µM
TGI [44]: > 100 µM
TGI [45]: > 100 µM

O=C(c1ccc(Cl)cc1)N(C(=S)N1CCN(c2ccccc2)CC1)C1CCCCC1
TGI [1]: > 100 µM
TGI [2]: > 100 µM
TGI [3]: > 100 µM
TGI [4]: > 100 µM
TGI [5]: > 100 µM
TGI [7]: 20.8 µM
TGI [46]: > 100 µM
TGI [8]: > 100 µM
TGI [9]: > 100 µM
TGI [47]: > 100 µM
TGI [10]: > 100 µM
TGI [11]: > 100 µM
TGI [12]: > 100 µM
TGI [48]: > 100 µM
TGI [13]: > 100 µM
TGI [49]: > 100 µM
TGI [14]: > 100 µM
TGI [15]: > 100 µM
TGI [16]: > 100 µM
TGI [17]: > 100 µM
TGI [18]: > 100 µM
TGI [19]: > 100 µM
TGI [20]: > 100 µM
TGI [21]: > 100 µM
TGI [50]: > 100 µM
TGI [22]: > 100 µM
TGI [23]: > 100 µM
TGI [24]: > 100 µM
TGI [25]: > 100 µM
TGI [26]: > 100 µM
TGI [51]: > 100 µM
TGI [27]: > 100 µM
TGI [28]: > 100 µM
TGI [52]: > 100 µM
TGI [29]: > 100 µM
TGI [53]: > 100 µM
TGI [30]: > 100 µM
TGI [54]: > 100 µM
TGI [55]: > 100 µM
TGI [31]: > 100 µM
TGI [32]: > 100 µM
TGI [33]: > 100 µM
TGI [34]: > 100 µM
TGI [35]: > 100 µM
TGI [36]: > 100 µM
TGI [37]: > 100 µM
TGI [38]: > 100 µM
TGI [39]: > 100 µM
TGI [40]: > 100 µM
TGI [41]: > 100 µM
TGI [42]: > 100 µM
TGI [43]: > 100 µM
TGI [44]: > 100 µM
TGI [45]: > 100 µM
